The record followed here is PubChem BioAssay (NCI).

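These data come from cells grown in 96-well plates and exposed to compound for 48 hours at five concentrations. The concentration for 50% growth inhibition is given as GI50. The concentration for full growth arrest is given as TGI.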

Among the test systems are A498 renal; CCRF-CEM leukemia; COLO 205 colon; EKVX NSCLC; HOP-92 NSCLC; HS 578T breast; IGROV1 ovarian; LOX IMVI melanoma; RPMI-8226 leukemia; U251 CNS.
Assay in all cases: NCI tumour cell line growth inhibition, 48 h

In the case of `Cc1cc(N/N=C/c2nc(-c3ccc(Cl)cc3)oc2C)c2cc(Cl)ccc2n1`, the GI50 is 11.7 µM in the experiment with A498 renal; 1.59 µM with CCRF-CEM leukemia; 2.31 µM in the experiment on COLO 205 colon; 14.6 µM in the experiment on EKVX NSCLC; 3.53 µM in the experiment with HOP-92 NSCLC; 3.42 µM with HS 578T breast. Further, the GI50 in the experiment with IGROV1 ovarian was 3.38 µM; in the experiment on LOX IMVI melanoma, 2.01 µM; with RPMI-8226 leukemia, 2.07 µM; in the experiment with U251 CNS, 1.78 µM. In addition, the TGI is 25.1 µM in the experiment with A498 renal; 7.18 µM in the experiment with CCRF-CEM leukemia; 6.57 µM in the experiment on COLO 205 colon; 28.3 µM in the experiment with EKVX NSCLC; 16.6 µM with HOP-92 NSCLC; 14.7 µM with HS 578T breast. The TGI in the experiment on IGROV1 ovarian was found to be 12.6 µM; with LOX IMVI melanoma, 4.18 µM; with RPMI-8226 leukemia, 5.21 µM; in the experiment on U251 CNS it was 3.37 µM.
In the case of `O=C1CCCN1CC#CCN1CCCC1`, the GI50 with A498 renal, in the experiment with CCRF-CEM leukemia, in the experiment on COLO 205 colon, in the experiment with EKVX NSCLC, in the experiment with HOP-92 NSCLC and in the experiment with HS 578T breast was greater than 100 µM throughout. Further, the GI50 in the experiment with IGROV1 ovarian, with LOX IMVI melanoma, in the experiment on RPMI-8226 leukemia and in the experiment with U251 CNS was greater than 100 µM throughout. The TGI in the experiment on A498 renal, with CCRF-CEM leukemia, in the experiment on COLO 205 colon, with EKVX NSCLC, with HOP-92 NSCLC and in the experiment with HS 578T breast was greater than 100 µM throughout. Further, the TGI in the experiment with IGROV1 ovarian, with LOX IMVI melanoma, in the experiment on RPMI-8226 leukemia and with U251 CNS was greater than 100 µM each time.
Take `COC(=O)CCCCCN=Cc1c(O)c(O)c(C(C)C)c2cc(C)c(-c3c(C)cc4c(C(C)C)c(O)c(O)c(C=NCCCCCC(=O)OC)c4c3O)c(O)c12`: the GI50 with A498 renal was 2.74 µM; in the experiment on CCRF-CEM leukemia, 0.946 µM; with COLO 205 colon, 1.18 µM; in the experiment with EKVX NSCLC it was 1.18 µM; with HOP-92 NSCLC it was 0.797 µM; in the experiment with HS 578T breast, 1.68 µM. Also, the GI50 is 1.76 µM with IGROV1 ovarian, 1.28 µM in the experiment with LOX IMVI melanoma, 0.946 µM in the experiment with RPMI-8226 leukemia and 1 µM in the experiment with U251 CNS. Moreover, the TGI in the experiment on A498 renal is greater than 32.5 µM; in the experiment on CCRF-CEM leukemia, 11.1 µM; in the experiment with COLO 205 colon, 13.2 µM; in the experiment with EKVX NSCLC, greater than 32.5 µM; in the experiment with HOP-92 NSCLC, 2.88 µM; with HS 578T breast, greater than 32.5 µM. The TGI with IGROV1 ovarian is greater than 32.5 µM; with LOX IMVI melanoma, 4.82 µM; with RPMI-8226 leukemia it was 15.1 µM; in the experiment on U251 CNS it was 5.6 µM.
`N#C[C@@H]1C(n2ccc(N)nc2=O)O[C@H](CO)[C@H]1O` (stereo not given in full): the GI50 in the experiment with A498 renal is greater than 100 µM; with CCRF-CEM leukemia, 0.135 µM; in the experiment with COLO 205 colon, 8.79 µM; in the experiment with EKVX NSCLC, greater than 100 µM; in the experiment with HOP-92 NSCLC, 7.66 µM; in the experiment with HS 578T breast it was greater than 100 µM. Moreover, the GI50 in the experiment with IGROV1 ovarian was greater than 100 µM; in the experiment on LOX IMVI melanoma, 11.4 µM; in the experiment with RPMI-8226 leukemia it was greater than 100 µM; in the experiment with U251 CNS it was 42.7 µM. Besides, the TGI in the experiment on A498 renal, in the experiment on CCRF-CEM leukemia, in the experiment with COLO 205 colon, with EKVX NSCLC, with HOP-92 NSCLC and with HS 578T breast was greater than 100 µM each time. Further, the TGI in the experiment with IGROV1 ovarian, in the experiment with LOX IMVI melanoma, in the experiment on RPMI-8226 leukemia and with U251 CNS was greater than 100 µM throughout.
For `CCN(CCNc1ccc(C)c2sc3ccccc3c(=O)c12)CC(C)(C)O`, the GI50 in the experiment with A498 renal was 7.46 µM; in the experiment on CCRF-CEM leukemia it was 6.95 µM; in the experiment with COLO 205 colon, 3 µM; in the experiment with EKVX NSCLC, 20.1 µM; in the experiment with HOP-92 NSCLC, 5.47 µM; with HS 578T breast, 11.5 µM. Also, the GI50 was 13.2 µM in the experiment on IGROV1 ovarian, 6.14 µM in the experiment with LOX IMVI melanoma, 2.11 µM in the experiment on RPMI-8226 leukemia and 5.67 µM in the experiment with U251 CNS. Besides, the TGI was 21.5 µM in the experiment on A498 renal; 34.5 µM in the experiment with CCRF-CEM leukemia; 13.2 µM in the experiment with COLO 205 colon; greater than 66.7 µM in the experiment on EKVX NSCLC; 20.5 µM in the experiment on HOP-92 NSCLC; 29.2 µM in the experiment with HS 578T breast. Also, the TGI was found to be 31.5 µM in the experiment on IGROV1 ovarian, 18.9 µM in the experiment on LOX IMVI melanoma, 8.04 µM with RPMI-8226 leukemia and 19.4 µM in the experiment on U251 CNS.
With `CC(C)Oc1cc(O)c2c(c1)OCC=C2CCC(=O)O`, the TGI in the experiment with A498 renal is 56.6 µM; in the experiment with CCRF-CEM leukemia it was 43.3 µM; in the experiment with COLO 205 colon, 31.2 µM; in the experiment with EKVX NSCLC, 91.2 µM; in the experiment on HOP-92 NSCLC it was 76.6 µM; with HS 578T breast it was greater than 100 µM. Moreover, the TGI is greater than 100 µM in the experiment with IGROV1 ovarian, greater than 100 µM in the experiment with LOX IMVI melanoma, 69.3 µM in the experiment with RPMI-8226 leukemia and greater than 100 µM in the experiment with U251 CNS.
